Experimental data published in the NIST ThermoML archive (doi:10.1021/je700578f).
± gives the expanded uncertainty stated by the source.

Conditions: Maximal bubble pressure

surface tension liquid-gas (353.15 K) [mN/m] | surface tension liquid-gas (373.15 K) [mN/m] | surface tension liquid-gas (393.15 K) [mN/m] | surface tension liquid-gas (413.15 K) [mN/m] | surface tension liquid-gas (433.15 K) [mN/m] | surface tension liquid-gas (453.15 K) [mN/m] | surface tension liquid-gas (473.15 K) [mN/m] | surface tension liquid-gas (303.15 K) [mN/m] | surface tension liquid-gas (313.15 K) [mN/m] | surface tension liquid-gas (323.15 K) [mN/m] | surface tension liquid-gas (333.15 K) [mN/m] | surface tension liquid-gas (343.15 K) [mN/m] | Compound
39.6 ± 1.6 | 37.53 ± 1.5 | 35.33 ± 1.4 | 33.3 ± 1.4 | 31.1 ± 1.3 | 28.95 ± 1.2 | 26.8 ± 1.1 | – | – | – | – | – | O=C(OCc1ccccc1)c1ccccc1 [benzyl benzoate]
– | – | – | – | – | – | – | 21.75 ± 0.89 | 20.9 ± 0.86 | 20.04 ± 0.82 | 19.18 ± 0.79 | 18.32 ± 0.75 | CO [methanol]
